The source of these data is patent US20200155566A1, “THERAPEUTIC COMBINATION OF A THIRD GENERATION EGFR TYROSINE KINASE INHIBITOR AND A CYCLIN D KINASE INHIBITOR” (Novartis AG, priority 2017, published 2020).

Data set [1] deals with Epidermal Growth Factor Receptor (EGFR). The note with it: L858R, exl9del, T790M versus WT; cited from earlier work.
Data set [2] relates to advanced non-small cell lung cancer (NSCLC) harboring T790M. The note with it: patients with advanced NSCLC harboring T790M; cited from earlier work.
Data set [3] has as its system phospho-EGFR (EGFR Y1068). Put plainly: Western blot of phospho-EGFR after 72 hours of treatment. The conditions noted are these: PC-14, NCI-H1975, HCC827, HCC4006, immunoblot. In kind it is cell-based. A general note: A western blot detects proteins with antibodies after separation by electrophoresis.
Experimental: NCI-H1975 (having mutations L858R, T790M), PC-14 (having mutations ex 19 del or exon 19 deletion), HCC827 (having mutation exl9del) and HCC4006 (having mutation exl9del) cells were cultured in RPMI-1640 growth medium (ATCC, catalog number 20-2001), supplemented with 10% fetal bovine serum (GIBCO, catalog number F4135) at 37° C. in a humidified 5% CO2 incubator. For the mechanistic studies, cells were seeded into tissue culture treated 6-well plates (Corning 3506) at a densities of 400k, 400k, 100K and 50k cells per well for HCC827, NCI-H1975, HCC4006 and PC-9 (having mutation exon 19 deletion) respectively, and allowed to attach overnight. […] After 72 hours of treatment, cells were lysed in 100 μl per well RIPA buffer (Sigma R0278) containing protease inhibitor cocktail (Sigma P8340), phosphatase inhibitor cocktail 2(Sigma P5726) and phosphatase inhibitor cocktail 3 (Sigma P0044). Cells were lysed on ice for 10 minutes, with scraping using a Cell Lifter (Corning 3008). Lysates were then micro-centrifuged at 14000rpm in an Eppendorf 5417R micro-centrifuge at 4° C.
Data set [4] deals with NCI-H1975 tumors (EGFR L858R, T790M). Put plainly: In vivo efficacy study, NCI-H1975 xenograft tumor volume. The arrangement: species or system mouse. The note with it: Compound A 10 or 30 mg/kg p.o. qd, Compound B 80 mg/kg free base p.o. qd. The protocol: The tumor cells were cultured in tissue culture flasks in a humidified incubator at 37° C., in an atmosphere of 5% CO2 and 95% air.

Data set [5] concerns EGFR mutant (L858R, exl9del and T790M) cancer models. The note with it: cited from earlier work.
The test system of data set [6] is EGFR mutant NSCLC cell lines (PC9, HCC827, HCC4006, MGH707). Put plainly: Long-term viability study (confluence by incucyte zoom, four weeks). In kind it is cell-based. The protocol:
PC9 (3,000/well), HCC827 (10,000/well), HCC4006 (5000/well), and MGH707 (5000/well) cells were plated into 96-well plates and the following day treated with EGF816 (300nM) either alone or in combination with LEE011 (1000 nM) for four weeks. Drug was refreshed twice per week. Cell confluence was used as a surrogate for cell number and was measured by an incucyte zoom (Essen Biosciences) at the initiation of treatment and then twice (2x) per week thereafter.

Another data set deals with EGFR-mutant NSCLC. The conditions noted are these: 100 mg daily versus 150 mg daily, previous study; cited from earlier work.
A further data set deals with CYP3A4/5. The note with it: cited from earlier work.
The test system of another data set is phospho-Rb (Rb S807/811). Put plainly: Western blot of phospho-Rb after 72 hours of treatment. The note with it: PC-14, NCI-H1975, HCC827, HCC4006, immunoblot. The class given is cell-based. The protocol: Several EGFR mutant NSCLC cell lines were treated for 72 hours with the EGF816 and LEE011 combination at different concentrations as follows. NCI-H1975 (having mutations L858R, T790M), PC-14 (having mutations ex 19 del or exon 19 deletion), HCC827 (having mutation exl9del) and HCC4006 (having mutation exl9del) cells were cultured in RPMI-1640 growth medium (ATCC, catalog number 20-2001), supplemented with 10% fetal bovine serum (GIBCO, catalog number F4135) at 37° C. in a humidified 5% CO2 incubator. For the mechanistic studies, cells were seeded into tissue culture treated 6-well plates (Corning 3506) at a densities of 400k, 400k, 100K and 50k cells per well for HCC827, NCI-H1975, HCC4006 and PC-9 (having mutation exon 19 deletion) respectively, and allowed to attach overnight. The cells were then exposed to a 3×3 matrix combination treatment of EGF816 and LEE011, at concentrations of 0, 0.12, 0.333 μM EGF816 vs. 0, 0.312, 2.5 μM LEE011. […]
Lysate' total protein content was determined by BCA assay (Pierce 23227), following the manufacturer's instructions, and samples were prepared for a western blot using Invitrogen LDS Sample Buffer (NP0007)) containing 200 mM DTT, boiled at 95° C. for 10 minutes, micro-centrifuged and 20 μg total protein loaded per well. […]

For data set [7] the following is noted: single agent ribociclib, 3 weeks on/1 week off; cited from earlier work.

With `Cc1cc(C(=O)Nc2nc3cccc(Cl)c3n2[C@@H]2CCCCN(C(=O)/C=C/CN(C)C)C2)ccn1` [EGF816, (R,E)-N-(7-chloro-1-(1-(4-(dimethylamino)but-2-enoyl)azepan-3-yl)-1H-benzo[d]imidazol-2-yl)-2-methylisonicotinamide], the “selectivity for mutant EGFR over wild type EGFR” value in [1] was “selectively inhibits activating and acquired resistance mutants (L858R, exl9del and T790M), while sparing wild type (WT) EGFR”. In addition, in [2], the “antitumor activity in patients” value is “durable antitumor activity”. For the same compound, the “EGFR phosphorylation (EGFR Y1068)” value in data set [3] is on record as “inhibited in a dose dependent manner across all cell lines”. In addition, the “tumor volume changes over time” value in data set [4] was “significant tumor regressions, which increased at higher doses”. Further, the “tolerability, body weight” value in data set [5] (efficacious doses, xenograft models) is “well tolerated with no body weight loss observed at efficacious doses”. Besides, the “anti-tumor efficacy in xenograft models” value in data set [5] (several xenograft models) is given as “Dose-dependent anti-tumor efficacy”. The “regrowth of cells (confluence as surrogate for cell number)” value in data set [6] (EGF816 300nM alone or with LEE011 1000 nM) is “begin to slowly regrow”. Besides, in [6] (EGF816 300nM, PC9, HCC827, HCC4006, MGH707), the “apoptosis and cell cycle arrest” value was “varying degrees of apoptosis and cell cycle arrest”. The “rates of rash and diarrhoea” value with EGFR-mutant NSCLC is “lower rates of rash and diarrhoea were observed at 100 mg daily”.

As for `CN(C)C(=O)c1cc2cnc(Nc3ccc(N4CCNCC4)cn3)nc2n1C1CCCC1` [LEE011, 7-cyclopentyl-2-(5-piperazin-1-yl-pyridin-2-ylamino)-7H-pyrrolo[2,3-d]pyrimidine-6-carboxylic acid dimethylamide], the CYP3A4/5 inhibition entry in the data set with CYP3A4/5 is reported as “inhibitor of CYP3A4/5”. Besides, the “tumor volume changes over time” value in [4] is on record as “no single agent activity”. For the same compound, the “Rb phosphorylation (Rb S807/811)” value with phospho-Rb (Rb S807/811) is recorded as “inhibited by LEE011 single agent in 3 out of 4 cell lines”. Also, in data set [7], the MTD is given as 900 mg qd.
